Measurements: PubChem BioAssay AID463203 (Broad Institute, 2010)
Active and inactive are the calls of the source.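 The calls were made as follows: active = more than half of replicate measurements showing over 20% loss of kinase signal relative to plate controls; inconclusive = some but at most half of replicates over 20% loss; inactive = no replicate over 20% signal loss.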

Target: Glycogen synthase kinase-3 alpha (Homo sapiens) (UniProt P49840)
Assay: concentration-response blocking of human GSK3A – biochemical, luminescence, cell-free homogeneous, retest, dose response (AID 463203)
Settings: GSK-3 alpha enzyme, ADP-Glo luminescence, 60 min

Chain of Glycogen synthase kinase-3 alpha (Homo sapiens) (P49840 whole entry, looked up): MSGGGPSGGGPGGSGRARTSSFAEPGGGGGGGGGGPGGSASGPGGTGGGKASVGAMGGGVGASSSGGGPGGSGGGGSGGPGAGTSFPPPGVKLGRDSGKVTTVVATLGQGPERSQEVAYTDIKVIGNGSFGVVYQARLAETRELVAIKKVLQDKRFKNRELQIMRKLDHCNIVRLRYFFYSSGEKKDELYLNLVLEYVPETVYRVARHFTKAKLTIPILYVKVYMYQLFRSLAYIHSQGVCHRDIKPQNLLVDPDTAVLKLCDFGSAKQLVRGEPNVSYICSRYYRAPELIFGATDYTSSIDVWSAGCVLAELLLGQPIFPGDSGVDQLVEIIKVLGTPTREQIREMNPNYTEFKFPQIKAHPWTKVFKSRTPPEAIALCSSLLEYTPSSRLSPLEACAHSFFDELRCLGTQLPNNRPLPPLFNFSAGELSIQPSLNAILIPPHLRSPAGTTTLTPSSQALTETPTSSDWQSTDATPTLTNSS

Row | SMILES | AC50
1 | O=c1cc(-c2ccc(O)c(O)c2)oc2c1ccc1ccccc12 | 5.66 µM
2 | Cc1ccc(OCc2nnnn2-c2ccccc2)cc1 | > 30 µM (inactive)
3 | COc1ccccc1Nc1nc(Cl)c(C=O)s1 | > 30 µM (inactive)
4 | c1cc2[nH]snc2c2nc(C3CC3)nc12 | 20.8 µM
5 | Oc1ccc(/C=N/Nc2nccnc2Cl)cc1 | 24.8 µM
6 | CC(=O)Nc1cccc(-c2csc(N)n2)c1 | > 30 µM (inactive)
7 | O=S(=O)(c1cccs1)N1CCN(c2ccnc3cc(Cl)ccc23)CC1 | > 30 µM (inactive)
8 | CCOC(=O)c1sc(NC(=O)CN2C(=O)NC3(CCC(C)CC3)C2=O)c(C(=O)OCC)c1C (configuration not stated) | > 30 µM (inactive)
9 | C/C(=N\NC(=O)c1nnn(-c2nonc2N)c1CN1CCCCCC1)c1ccc(Br)cc1 | 29.7 µM
10 | CCCCSc1nc(C)[nH]c1[N+](=O)[O-] | > 30 µM (inactive)
11 | Nc1cccc(C(=O)O)c1 | > 30 µM (inactive)
12 | COc1ccc(-c2cc(C(F)(F)F)nc(SCCC(=O)NCc3ccco3)n2)cc1 | > 30 µM (inactive)
13 | CN(C)C(=O)Oc1ccc2c(c1)O/C(=C\c1cccc([N+](=O)[O-])c1)C2=O | > 30 µM (inactive)
14 | CN(C)/N=C/c1cn(-c2ccccc2)nc1-c1cccnc1 | > 30 µM (inactive)
15 | Cc1ccc(-c2c3c(=O)n(C)c(=O)n(C)c3cn2Cc2ccccn2)cc1 | > 30 µM (inactive)
16 | COc1cc(/C=N/n2nnnc2N)ccc1OCC#N | > 30 µM (inactive)
17 | O=C(CN(Cc1ccc(F)cc1)C(=O)CCC(=O)Nc1nccs1)NCc1ccc(F)cc1 | 9.59 µM
18 | O=C(c1ccc(F)cc1)c1cnc(Nc2ccccc2)s1 | > 30 µM (inactive)
19 | COc1ccc(C2=Nn3c(nnc3-c3ccncc3)SC2)cc1 | 5.49 µM
20 | O=C(NC1=NCCS1)c1ccc(Cl)cc1 | > 30 µM (inactive)
21 | COC(=O)C1=C(C)Nc2ncnn2C1c1ccco1 (configuration not stated) | > 30 µM (inactive)
22 | COC(=O)c1sccc1NC(=O)c1ccccc1 | > 30 µM (inactive)
23 | CCOC(=O)c1c(NC(=O)CSc2nnc(CNc3ccc(C)cc3C)o2)sc(C)c1C | > 30 µM (inactive)
24 | CC(=O)Nc1cccc(-c2csc(Nc3ccc(C)cn3)n2)c1 | > 30 µM (inactive)
25 | Cc1cc2nc(-c3cccnc3SCC(=O)NCc3ccco3)[nH]c2cc1C | > 30 µM (inactive)
26 | CCCCC(=O)Nc1ccc2c(c1)C(=O)NC2=O | 15.6 µM

Row | SMILES | AC50
27 | Nc1c(C(=O)O)cnc2c(-c3ccc(Cl)cc3)cnn12 | 15.8 µM
28 | O=C(O)c1[nH]c2ccc([N+](=O)[O-])cc2c1-c1ccccc1 | 11 µM
29 | O=C(Nc1sc2c(c1C(=O)O)CCC2)c1cccs1 | > 30 µM (inactive)
30 | COc1ccc(Nc2nc(S(=O)(=O)c3ccc(C)cc3)c(Cl)s2)cc1 | > 30 µM (inactive)
31 | CN(C)/C=C/c1c([N+](=O)[O-])c2ccc(O)cc2n1-c1ccccc1 | 2.08 µM
32 | CCc1ccc(NC(=S)NC(=O)CC(C)C)cc1 | > 30 µM (inactive)
33 | O=C(N/N=C/c1ccc(O)c(O)c1)C1CC1 | > 30 µM (inactive)
34 | Cc1c(C(=O)N/N=C/c2ccc(O)c(Br)c2)sc(N)c1C#N | 1.02 µM
35 | CCOC(=O)N1CCC(N2CCN(S(=O)(=O)c3ccc(NC(C)=O)cc3)CC2)CC1 | > 30 µM (inactive)
36 | C[C@@H](NC(=O)c1[nH]cnc1C(=O)Nc1ccon1)c1ccccc1 | 11.6 µM
37 | C=CCNC(=S)N/N=C(\C)c1ccc(OC)cc1 | > 30 µM (inactive)
38 | CCN(CC)CCOc1ccc2c(c1)C(=NNC(=O)c1ccccn1)c1cc(OCCN(CC)CC)ccc1-2 | > 30 µM (inactive)
39 | C/C(=N/NC(=O)c1ccc(C)s1)c1ccncc1 | 27.3 µM
40 | O=C(Cn1c(NCCO)nc2ccccc21)NCC1CCCO1 (configuration not stated) | > 30 µM (inactive)
41 | CCc1ccc(OCC(O)CNC(C)(C)C)cc1 (configuration not stated) | > 30 µM (inactive)
42 | Cc1sc(NC(=O)CSc2nc(N)cc(N)n2)c(C#N)c1C | > 30 µM (inactive)
43 | COC1(OC)N=C(N)C2(C#N)C(c3ccc4c(c3)OCO4)C12C#N (configuration not stated) | 20.1 µM
44 | O=C(Nc1ncc([N+](=O)[O-])s1)C1CC(=O)N(c2ccc(F)cc2)C1 (configuration not stated) | 12.4 µM
45 | Cc1sc2ncnc(N3CCC(C(=O)Nc4ccc(C#N)cc4)CC3)c2c1C | > 30 µM (inactive)
46 | O=C(c1cccnc1NCc1ccccc1)N1CCOCC1 | > 30 µM (inactive)
47 | Cc1ccc(OCC(=O)NNC(=O)C(C)Sc2ncnc3sc(C)c(C)c23)cc1 (configuration not stated) | > 30 µM (inactive)
48 | Oc1ccc(/C=N/NP(=S)(c2ccccc2)c2ccccc2)cc1O | > 30 µM (inactive)
49 | CC(=O)OCC1OC(n2ccc(=O)[nH]c2=O)C(O)C1O (configuration not stated) | > 30 µM (inactive)
50 | CCOc1ccc(Nc2nc(NCc3ccco3)nc(N)c2[N+](=O)[O-])cc1 | > 30 µM (inactive)
51 | Cc1cc2nc(-c3ccc(=O)[nH]c3)n(Cc3ccccc3)c2cc1C | > 30 µM (inactive)
52 | CCC/C(=N/NC(=O)c1nnn(-c2nonc2N)c1CN1CCCCC1)c1ccccc1 | 18.7 µM

Row | SMILES | AC50
53 | CCOC(=O)c1c(NC(=O)CN2C(=O)NC3(CCC(C)CC3)C2=O)sc(C)c1CC (configuration not stated) | > 30 µM (inactive)
54 | CN(Cc1nc2c(s1)CCCC2)C(=O)CCc1nnc(-c2ccccc2)o1 | > 30 µM (inactive)
55 | CC(=O)Nc1ccc(CC#N)cc1 | > 30 µM (inactive)
56 | CCOC(=O)c1nc(NCc2ccccc2C)c2ccccc2n1 | > 30 µM (inactive)
57 | CC1=C(C#N)c2nc(N)c(C#N)c(C)c2/C1=C\c1ccc(OCC(=O)O)c(Cl)c1 | 20.4 µM
58 | O=c1[nH]nc(SCc2ccccc2Cl)n1-c1ccc2c(c1)OCCO2 | 7.11 µM
59 | CC(=O)C(Sc1ccc2nnc(-c3ccncc3)n2n1)C(C)=O | > 30 µM (inactive)
60 | Cc1nc(SCC(=O)Nc2ccccc2C(F)(F)F)c(C#N)c(C)c1CC(=O)c1ccc(Br)cc1 | > 30 µM (inactive)
61 | CN1/C(=C/C2CC(=O)NC2=O)C(C)(C)c2ccccc21 (configuration not stated) | 5.14 µM
62 | COc1ccc2ccccc2c1/C=N/NC(=O)c1sc(N)c(C#N)c1C | 25.3 µM
63 | COc1ccc(C(=O)c2sc(NC(C)C)nc2N)cc1OC | 0.234 µM
64 | COc1ccc(-n2c(Cc3cccn3C)nnc2SCC(=O)Nc2ccc(F)cc2)cc1 | > 30 µM (inactive)
65 | CC1=C(C(=O)OCc2ccc3c(c2)OCO3)C(c2cccc([N+](=O)[O-])c2)NC(=O)N1 (configuration not stated) | 3.28 µM
66 | O=C(CCn1[nH]c(=O)c2ccccc2c1=O)N1CCOCC1 | > 30 µM (inactive)
67 | Cc1cc(=O)[nH]c2c(C)c(N)ccc12 | > 30 µM (inactive)
68 | COc1ccc2cc(C(=O)NCc3ccco3)c(=O)oc2c1 | > 30 µM (inactive)
69 | NCCNc1ccc([N+](=O)[O-])c(NC2CC2)c1 | > 30 µM (inactive)
70 | CCc1nnc(NC(=O)CCN2C(=O)c3ccccc3C2=O)s1 | > 30 µM (inactive)
71 | CCOc1ccc(Nc2nc(N(C)c3ccccc3)nc(N)c2[N+](=O)[O-])cc1 | > 30 µM (inactive)
72 | C=CCN1C(=O)/C(=C\c2cccs2)C(C(=O)OC)=C1C | > 30 µM (inactive)
73 | Cc1ccc(N2C(S)=C(C#N)C(=O)NC2c2ccco2)cc1 (configuration not stated) | > 30 µM (inactive)
74 | COc1ccccc1C(=O)NNC(=O)c1cccc(Cl)c1 | > 30 µM (inactive)
75 | C=CCn1c(O)c(C(C)=NCCCn2ccnc2)c(=O)[nH]c1=O | 19.4 µM
76 | Cc1ccc2c(c1)COc1c3ccc(C(=O)N4CCCCC4)cc3nn1-2 | > 30 µM (inactive)
77 | CCOc1cccc(-c2c(C(=O)N/N=C(\C)c3ccncc3)nnn2-c2nonc2N)c1 | 1.45 µM
